Some test systems named below: COLO 205; MDA-N; SF-295; CAKI-1; SNB-75; SR; HOP-92; A498; EKVX; Hs-578T; 786-0; PC-3; OVCAR-3; SK-MEL-28; HCT-116; BT-549; SNB-19; A549; U-251; CCRF-CEM.
Common to all, as to assay: NCI anticancer screen, dose series, 48 h

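The compound was tested at five concentrations on cells cultured in 96-well plates, with a 48-hour exposure period. GI50 is the concentration that inhibits growth by half.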 Active and inactive are the calls of the source. Cut-off read from the data, not from the text of the source: active = GI50 up to about 1.1 µM and inactive = higher.

`O=CNc1ccc2c(c1)C(=O)c1ccccc1-2`: the GI50 in the assay with COLO 205 is 67.5 µM (inactive); in the assay on MDA-N, > 100 µM (inactive); in the assay on SF-295, > 100 µM (inactive); in the assay with CAKI-1 it was > 100 µM (inactive); in the assay with SNB-75, 86.3 µM (inactive); in the assay with SR, 37.2 µM (inactive). Also, the GI50 in the assay with HOP-92 is 72.8 µM (inactive); in the assay with A498, 90.2 µM (inactive); in the assay on EKVX, 4.69 µM (inactive); in the assay on Hs-578T, 24.1 µM (inactive); in the assay with 786-0, 42.9 µM (inactive); with PC-3, 68.2 µM (inactive). Also, the GI50 is > 100 µM (inactive) in the assay on OVCAR-3; > 100 µM (inactive) with SK-MEL-28; 37.8 µM (inactive) in the assay on HCT-116; > 100 µM (inactive) with BT-549; > 100 µM (inactive) with SNB-19; > 100 µM (inactive) in the assay on A549. For the same molecule, the GI50 with U-251 was 65 µM (inactive); with CCRF-CEM it was 41.2 µM (inactive).
As for `C[Si](C)(c1ccccc1)[C@H]1CCCC=C1CCNC1c2ccccc2CCc2ccccc21`, the GI50 in the assay with COLO 205 was 38.9 µM (inactive); with MDA-N, 70.5 µM (inactive); with SF-295, 40.6 µM (inactive); in the assay with CAKI-1, 73.5 µM (inactive); in the assay on SNB-75 it was 67.3 µM (inactive); in the assay on SR it was 36.6 µM (inactive). For the same molecule, the GI50 was 23.7 µM (inactive) in the assay on HOP-92; 69.2 µM (inactive) with A498; 29.4 µM (inactive) with EKVX; > 100 µM (inactive) in the assay with Hs-578T; > 100 µM (inactive) in the assay on 786-0; > 100 µM (inactive) in the assay with PC-3. Further, the GI50 in the assay on OVCAR-3 is > 100 µM (inactive); in the assay with SK-MEL-28 it was > 100 µM (inactive); with HCT-116 it was 48.3 µM (inactive); in the assay on BT-549, > 100 µM (inactive); in the assay on SNB-19, > 100 µM (inactive); in the assay on A549 it was 61.8 µM (inactive). The GI50 with U-251 was > 100 µM (inactive); with CCRF-CEM, 1.07 µM (active).

The record behind these values is ChEMBL document CHEMBL1201862, “PubChem BioAssay data set” (2004).
